Experimental data from paper PMC6814236, “Monitoring and characterizing soluble and membrane-bound ectonucleotidases CD73 and CD39” (PLoS ONE, 2019).

Columns and labels:
[1] = biological target: T1, Recombinant Human 5'-Nucleotidase/CD73 (Homo sapiens, UniProt P21589); assay: Enzyme activity of purified CD73 (AMP-Glo assay); format: biochemical; details: for IC50: 0.1 ng CD73, 5min at 23°C
T1 construct: purchased R&D Systems
T1 sequence (P21589 27-574): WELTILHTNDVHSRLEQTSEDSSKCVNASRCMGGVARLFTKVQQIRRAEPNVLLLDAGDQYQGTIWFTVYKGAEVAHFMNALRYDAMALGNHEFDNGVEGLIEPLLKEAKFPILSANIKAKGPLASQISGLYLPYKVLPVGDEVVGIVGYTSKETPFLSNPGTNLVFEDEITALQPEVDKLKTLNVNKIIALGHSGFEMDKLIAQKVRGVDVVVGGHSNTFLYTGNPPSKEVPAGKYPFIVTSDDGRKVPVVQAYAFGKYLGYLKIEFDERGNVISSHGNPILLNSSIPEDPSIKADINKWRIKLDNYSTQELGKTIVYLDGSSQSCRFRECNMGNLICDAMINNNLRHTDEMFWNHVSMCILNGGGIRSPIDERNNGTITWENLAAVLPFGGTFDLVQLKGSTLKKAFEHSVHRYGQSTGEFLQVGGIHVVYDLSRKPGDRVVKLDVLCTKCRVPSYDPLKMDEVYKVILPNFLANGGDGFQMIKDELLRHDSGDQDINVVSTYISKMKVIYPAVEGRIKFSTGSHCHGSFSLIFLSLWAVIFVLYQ
Experimental: • Determination of enzyme activity of purified CD73. In a 25 μl reaction buffer (10mM HEPES, pH 7.4, 2mM MgCl2, 1mM CaCl2, and 0.1mg/ml BSA) containing enzyme and AMP substrate at 1μM to 10μM (96-well format), enzyme activity was performed at 23°C for specified time period and terminated by the addition of equal volume (25μl) of AMP-Glo™ Reagent I containing 50 μM (final concentration) of known CD73 inhibitor, such as AMPCP. Reactions were mixed well and incubated for additional 30 min at 23°C. This was followed by the addition of 50 μl of AMP Detection Solution (10μl of AMP-Glo™ Reagent II per ml of Kinase-Glo® One Solution) and incubated for additional 60 min at 23°C before reading luminescence.

CD39 (His-Tag Human) = biological target: T2, CD39 (His-Tag Human) (Homo sapiens, UniProt P49961); assay: Enzyme activity of purified CD39 with ATP or ADP as substrate; format: biochemical; details: for inhibitory effect on purified CD39: 0.1ng CD39, 10 μM ATP or 10 μM ADP, 30min at 37°C
T2 construct: His; purchased R&D Systems
T2 sequence (P49961 1-510): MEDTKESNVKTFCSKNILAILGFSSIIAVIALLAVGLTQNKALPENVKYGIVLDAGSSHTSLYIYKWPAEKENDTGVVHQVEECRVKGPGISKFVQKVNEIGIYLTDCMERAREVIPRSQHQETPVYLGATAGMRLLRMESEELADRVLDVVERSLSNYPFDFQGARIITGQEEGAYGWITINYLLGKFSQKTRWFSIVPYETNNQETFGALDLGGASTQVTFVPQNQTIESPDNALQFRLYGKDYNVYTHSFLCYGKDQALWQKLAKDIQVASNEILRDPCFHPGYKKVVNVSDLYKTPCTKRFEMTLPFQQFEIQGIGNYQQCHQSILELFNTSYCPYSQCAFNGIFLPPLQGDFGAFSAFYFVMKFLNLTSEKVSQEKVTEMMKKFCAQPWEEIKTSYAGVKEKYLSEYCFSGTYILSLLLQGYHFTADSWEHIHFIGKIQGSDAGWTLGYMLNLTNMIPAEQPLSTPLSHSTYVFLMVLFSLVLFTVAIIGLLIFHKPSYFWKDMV
Experimental: • 2 Determination of enzyme activity of purified cytosolic cN-II. Activity of purified cN-II (Human cytosolic 5'-Nucleotidase) was determined using 25μl reaction buffer (50mM HEPES, pH 7.0, 100mM KCl, 20mM MgCl2, 5mM DTT, 2.5mM dATP, and 0.1mg/ml BSA) containing enzyme and AMP substrate at 10μM (96-well format). Reaction continued at 37°C for 60 minutes or for a certain time period and terminated by the addition of equal volume (25μl) of AMP-Glo™ Reagent I. Reactions were mixed well and incubated for additional 30 min at 23°C. This was followed by the addition of 50 μl of AMP Detection Solution (10μl of AMP-Glo™ Reagent II per ml of Kinase-Glo® One Solution) and incubated for additional 60 min at 23°C before reading luminescence. • 3 Determination of enzyme activity of purified CD39. […] When ATP is used as a substrate, an equal volume of Kinase-Glo® One Solution was added to CD39 reactions and incubated for 15 min before reading luminescence using a luminometer. When ADP is used as a substrate for CD39, after enzyme reaction completion, an equal volume of AMP Detection Solution with a known CD39 known inhibitor, such as POM 1 at 50μM final concentration was added. Reactions were mixed well and incubated for 60min before reading luminescence using luminometer. For enzyme dilution, reaction buffer can be used for dilution of enzymes.

PKA, protein kinase A = test system: T3, PKA, protein kinase A; assay: Inhibitor specificity against other enzymes: PKA; format: biochemical
T3 construct: purchased Promega
From the text: (§1) Enzyme tested are protein serine/threonine/tyrosine, lipid, sugar, and inorganic kinases, and K/Na ATPase. […] PKA, protein kinase A (solid circle), PKCα (solid square), Src, protein tyrosine Src kinase (solid triangle), Acka, acetate kinase from Escherichia coli (solid reverse triangle), HK, hexokinase from Saccharomyces cerevisiae (solid circle), PI3αKinase, p110α/p85α (square), K/K ATPase, Adenosine 5´-Triphosphatase from porcine cerebral cortex (circle), CD39 (ATP substrate, triangle), and CD39 (ADP substrate, reverse triangle); for CD73 (triangle) in panel B. Each point represents average of a typical experiment done in triplicates; results shown are mean ± SD.

PKCα = test system: T4, PKCα; assay: Inhibitor specificity against other enzymes: PKCα; format: biochemical
T4 construct: purchased Promega
From the text: as §1

[2] = test system: T5, Src, protein tyrosine Src kinase; assay: Inhibitor specificity against other enzymes: Src; format: biochemical
T5 construct: purchased Promega
From the text: as §1

Acka, acetate kinase = test system: T6, Acka, acetate kinase; assay: Inhibitor specificity against other enzymes: acetate kinase; format: biochemical, Escherichia coli
T6 construct: purchased Millipore Sigma
From the text: as §1

HK, hexokinase = assay: Inhibitor specificity against other enzymes: hexokinase; format: biochemical, Saccharomyces cerevisiae
From the text: as §1

PI3αKinase, p110α/p85α = test system: T7, PI3αKinase, p110α/p85α; assay: Inhibitor specificity against other enzymes: PI3Kα; format: biochemical
T7 construct: purchased Promega
From the text: as §1

[3] = test system: Adenosine 5'-Triphosphatase from porcine cerebral cortex (Na+/K+-ATPase)
From the text: as §1

| SMILES | IC50 ([1]; 5 μM AMP) [nM] | IC50 ([1]; 10 μM AMP) [nM] | inhibitory effect on purified CD39 (CD39 (His-Tag Human)) | inhibition of PKA (PKA, protein kinase A) | inhibition of PKCα (PKCα) | inhibition of Src [2] | inhibition of acetate kinase (Acka, acetate kinase) | inhibition of hexokinase (HK, hexokinase) | inhibition of PI3Kα (PI3αKinase, p110α/p85α) | inhibition of K+/Na+-ATPase [3] | effect on CD73 enzyme activity ([1]; purified CD73, 0.1ng, 1μM AMP, 5 min at 23°C (Fig 6)) | IC50 (CD39 (His-Tag Human); 10 μM ADP as substrate, 0.1 ng enzyme) [nM] |
| --- | --- | --- | --- | --- | --- | --- | --- | --- | --- | --- | --- | --- |
| Nc1ncnc2c1ncn2[C@@H]1O[C@H](COP(=O)(O)CP(=O)(O)O)[C@@H](O)[C@H]1O [AMP-CP, Adenosine 5'-(α, β-methylene) diphosphate] | 157 | 300 | no inhibitory effect | minimal inhibition | no inhibition | no inhibition | no inhibition | no inhibition | no inhibition | no inhibition |  |  |
| [Na+].[Na+].[Na+].[Na+].[Na+].[Na+].[O]=[W](=[O])([O-])[O-].[O]=[W](=[O])([O-])[O-].[O]=[W](=[O])([O-])[O-].[O]=[W](=[O])=[O].[O]=[W](=[O])=[O].[O]=[W](=[O])=[O].[O]=[W](=[O])=[O].[O]=[W](=[O])=[O].[O]=[W](=[O])=[O].[O]=[W](=[O])=[O].[O]=[W](=[O])=[O].[O]=[W](=[O])=[O] [POM1, Sodium metatungstate] |  |  | inhibited | inhibited | inhibited | inhibited | inhibited | inhibited | inhibited | inhibited | no effect | 3700 |
